According to ChEMBL document CHEMBL3763061, “Inhibition of cancer cell invasion by new ((3,4-dihydroxy benzylidene)hydrazinyl)pyridine-3-sulfonamide analogs” (2016):
Activity calls are given as the source filed them. No cut-off for these calls is given here.

Key:
A-375 [1] = assay: Cytotoxicity against human A375 cells assessed as growth inhibition at 10 uM after 24 hrs by MTT assay relative to control; format: functional; conditions: A-375, 24 h, read-out: GI
MDA-MB-231 [2] = assay: Antimigratory activity against human MDA-MB-231 cells assessed as density of migrated cells in scratched areas by wound scratch assay; format: functional, cell-based
MDA-MB-231 [3] = assay: Cytotoxicity against human MDA-MB-231 cells assessed as growth inhibition at 10 uM after 24 hrs by MTT assay relative to control; format: functional; conditions: MDA-MB-231, 24 h, read-out: GI
MDA-MB-231 [4] = assay: Inhibition of alpha-smooth muscle actin expression in human MDA-MB-231 cells; format: functional, cell-based
MDA-MB-231 [5] = assay: Inhibition of collagen expression in human MDA-MB-231 cells; format: functional, cell-based
A-375 [6] = assay: Antimigratory activity against human A375 cells assessed as inhibition of cell migration by wound scratch assay; format: functional, cell-based
A-375 [7] = assay: Inhibition of Rab27a expression in human A375 cells; format: functional, cell-based
MDA-MB-231 [8] = assay: Inhibition of N-cadherin expression in human MDA-MB-231 cells; format: functional, cell-based
A-375 [9] = assay: Inhibition of collagen expression in human A375 cells; format: functional, cell-based
MDA-MB-231 [10] = assay: Antiinvasive activity against human MDA-MB-231 assessed as inhibition of tumor invasion cells by transwell invasion assay; format: functional, cell-based
MDA-MB-231 [11] = assay: Inhibition of vimentin expression in human MDA-MB-231 cells; format: functional, cell-based
A-375 [12] = assay: Inhibition of vimentin expression in human A375 cells; format: functional, cell-based
A-375 [13] = assay: Inhibition of N-cadherin expression in human A375 cells; format: functional, cell-based
A-375 [14] = assay: Inhibition of fibronectin expression in human A375 cells; format: functional, cell-based
A-375 [15] = assay: Antiinvasive activity against human A375 cells assessed as inhibition of tumor invasion by transwell invasion assay; format: functional, cell-based
A-375 [16] = assay: Inhibition of alpha-smooth muscle actin expression in human A375 cells; format: functional, cell-based
MDA-MB-231 [17] = assay: Inhibition of fibronectin expression in human MDA-MB-231 cells; format: functional, cell-based
MDA-MB-231 [18] = assay: Inhibition of Rab27a expression in human MDA-MB-231 cells; format: functional, cell-based

For `O=S(=O)(c1ccc(N/N=C/c2ccc(O)c(O)c2)nc1)N1CCCC1`, the inhibition of growth at 10 µM (A-375 [1]) was -2.01%, the Activity (MDA-MB-231 [2]) was “Active” and the inhibition of growth at 10 µM (MDA-MB-231 [3]) was -13.6%.
With `CCOC(=O)CN(C)S(=O)(=O)c1ccc(N/N=C/c2ccc(O)c(O)c2)nc1` the inhibition of growth at 10 µM (A-375 [1]) was -13.7% and the inhibition of growth at 10 µM (MDA-MB-231 [3]) was 0.97%.
In the case of `CN(Cc1ccccc1)S(=O)(=O)c1ccc(N/N=C/c2ccc(O)c(O)c2)nc1`, the inhibition (MDA-MB-231 [4]) was “Active”, the inhibition (MDA-MB-231 [5]) was “Active” and the inhibition (A-375 [6]) was “Active”. The inhibition (A-375 [7]) was “Active”, the inhibition (MDA-MB-231 [8]) was “Active” and the inhibition (A-375 [9]) was “Active”. For the same compound, the inhibition of growth at 10 µM (A-375 [1]) was 49.4%, the inhibition (MDA-MB-231 [10]) was “Active” and the inhibition (MDA-MB-231 [11]) was “Active”. For the same compound, the Activity (MDA-MB-231 [2]) was “Active”, the inhibition (A-375 [12]) was “Active” and the inhibition (A-375 [13]) was “Active”. The inhibition (A-375 [14]) was “Active”, the inhibition of growth at 10 µM (MDA-MB-231 [3]) was 24.6% and the inhibition (A-375 [15]) was “Active”. The inhibition (A-375 [16]) was “Active”, the inhibition (MDA-MB-231 [17]) was “Active” and the inhibition (MDA-MB-231 [18]) was “Active”.
With `COCCNS(=O)(=O)c1ccc(N/N=C/c2ccc(O)c(O)c2)nc1` the inhibition of growth at 10 µM (A-375 [1]) was -11.4% and the inhibition of growth at 10 µM (MDA-MB-231 [3]) was -9.95%.
`O=S(=O)(NCc1cccc2ccccc12)c1ccc(N/N=C/c2ccc(O)c(O)c2)nc1` showed an inhibition of growth at 10 µM (A-375 [1]) of -13.8% and an inhibition of growth at 10 µM (MDA-MB-231 [3]) of -21%.
`C[C@@H](NS(=O)(=O)c1ccc(N/N=C/c2ccc(O)c(O)c2)nc1)C1CCCCC1` showed an inhibition of growth at 10 µM (A-375 [1]) of 3.45% and an inhibition of growth at 10 µM (MDA-MB-231 [3]) of -25.8%.
For `CN1CCN(S(=O)(=O)c2ccc(N/N=C/c3ccc(O)c(O)c3)nc2)CC1`, the inhibition of growth at 10 µM (A-375 [1]) was 1.29% and the inhibition of growth at 10 µM (MDA-MB-231 [3]) was 2.1%.
`O=S(=O)(c1ccc(N/N=C/c2ccc(O)c(O)c2)nc1)N1CCOCC1` was tested, and the inhibition of growth at 10 µM (A-375 [1]) was -9.25% and the inhibition of growth at 10 µM (MDA-MB-231 [3]) was -5.98%.
In the case of `O=S(=O)(Nc1cc(Cl)ccc1O)c1ccc(N/N=C/c2ccc(O)c(O)c2)nc1`, the inhibition of growth at 10 µM (A-375 [1]) was -3.03% and the inhibition of growth at 10 µM (MDA-MB-231 [3]) was 7.47%.
With `O=S(=O)(Nc1cccc(Cl)c1)c1ccc(N/N=C/c2ccc(O)c(O)c2)nc1` the inhibition (MDA-MB-231 [4]) was “inactive”, the inhibition (MDA-MB-231 [5]) was “inactive” and the inhibition (A-375 [6]) was “Active”. The inhibition (A-375 [7]) was “Active”, the inhibition (MDA-MB-231 [8]) was “Active” and the inhibition (A-375 [9]) was “inactive”. The inhibition of growth at 10 µM (A-375 [1]) was 71.7%, the inhibition (MDA-MB-231 [10]) was “Active” and the inhibition (MDA-MB-231 [11]) was “Active”. The Activity (MDA-MB-231 [2]) was “Active”, the inhibition (A-375 [12]) was “Active” and the inhibition (A-375 [13]) was “Active”. The inhibition (A-375 [14]) was “inactive”, the inhibition of growth at 10 µM (MDA-MB-231 [3]) was 26.3% and the inhibition (A-375 [15]) was “Active”. The inhibition (A-375 [16]) was “inactive”, the inhibition (MDA-MB-231 [17]) was “inactive” and the inhibition (MDA-MB-231 [18]) was “Active”.
In the case of `O=S(=O)(c1ccc(N/N=C/c2ccc(O)c(O)c2)nc1)N1CCC(O)CC1`, the inhibition of growth at 10 µM (A-375 [1]) was -14.1% and the inhibition of growth at 10 µM (MDA-MB-231 [3]) was -15.8%.
For `O=S(=O)(c1ccc(N/N=C/c2ccc(O)c(O)c2)nc1)N1CCc2ccccc2C1`, the inhibition (MDA-MB-231 [4]) was “inactive”, the inhibition (MDA-MB-231 [5]) was “inactive” and the inhibition (A-375 [6]) was “inactive”. For the same compound, the inhibition (MDA-MB-231 [8]) was “inactive”, the inhibition (A-375 [9]) was “inactive” and the inhibition of growth at 10 µM (A-375 [1]) was 8.41%. For the same compound, the inhibition (MDA-MB-231 [10]) was “inactive”, the inhibition (MDA-MB-231 [11]) was “Active” and the Activity (MDA-MB-231 [2]) was “inactive”. The inhibition (A-375 [12]) was “Active”, the inhibition (A-375 [13]) was “inactive” and the inhibition (A-375 [14]) was “inactive”. The inhibition of growth at 10 µM (MDA-MB-231 [3]) was 14.9%, the inhibition (A-375 [15]) was “inactive” and the inhibition (A-375 [16]) was “inactive”. For the same compound, the inhibition (MDA-MB-231 [17]) was “inactive”.
Compound `CN(C)S(=O)(=O)c1ccc(N/N=C/c2ccc(O)c(O)c2)nc1` has an inhibition of growth at 10 µM (A-375 [1]) of 1.44% and an inhibition of growth at 10 µM (MDA-MB-231 [3]) of 4.81%.
`O=S(=O)(Nc1ccc(O)cc1)c1ccc(N/N=C/c2ccc(O)c(O)c2)nc1` was tested, and the inhibition of growth at 10 µM (A-375 [1]) was -15.1% and the inhibition of growth at 10 µM (MDA-MB-231 [3]) was -1.92%.
`O=S(=O)(c1ccc(N/N=C/c2ccc(O)c(O)c2)nc1)N1CCCCC1` was tested, and the inhibition of growth at 10 µM (A-375 [1]) was 5.06%, the Activity (MDA-MB-231 [2]) was “Active” and the inhibition of growth at 10 µM (MDA-MB-231 [3]) was -15.6%.
